Source: patent US20250084080A1, “CRYSTALLINE AND SALT FORMS OF AN NLRP3 INHIBITOR” (BioAge Labs, Inc., priority 2023, published 2025)
Converted amounts (≈) assume the structure as drawn.

Tests used:
Assay type in all cases: physicochemical
[1] = Hygroscopicity by dynamic vapor sorption (DVS) at 25° C.; details: DVS at 25° C.
Protocol: Dynamic vapor sorption (DVS) was performed on an Intrinsic, Advantage or Adventure with an oven temperature of 25° C. using water as a solvent. The sample mass was about 5-10 mg using the following method: • Cycle: 40-0-95-0-40% RH • Stage Step: 10% • Equilibrium: 0.002 dm/dt (%/min) • Minimum dm/dt stability duration: 60 min • Maximum dm/dt stage time: 360 min. Hygroscopicity of free form Pattern B was evaluated by dynamic vapor sorption (DVS) test at 25° C. […] It absorbed about 0.8% water at 80% RH at 25° C.

[2] = Solubility at 37° C. in buffers and biorelevant media, XRPD of residual solid; details: for XRPD of residual solid: 24 h; for solubility: thermodynamic from solid
Protocol: Solubility of BAL-0748 free form Pattern B was investigated in pH 1.2 HCl buffer, pH 4.5 50 mM acetate buffer, pH 6.8 50 mM phosphate buffer, water, pH 1.6 FaSSGF, pH 6.5 FaSSIF-v1, pH 5.0 FeSSIF-v1 and 2% HPMC+1% Pluronic F68 in pH 4.5 50 mM acetate buffer at 37° C. for 2 h and 24 h. Residual solids after the solubility test were analyzed by XRPD.
Solubility of the free form Pattern A, the HCl salt Pattern A, the phosphate salt Pattern A, and the sodium salt Pattern A was measured in pH 1.2 HCl buffer, pH 4.5 acetate buffer (50 mM), pH 6.8 phosphate buffer (50 mM), water, pH 1.6 FaSSGF, pH 6.5 FaSSIF-v1, pH 5.0 FeSSIF-v1, and 2% HPMC+1% Pluronic F68 in pH 4.5 acetate buffer (50 mM) at 37° C. for 2 hours and 24 hours.
10.4 mg of the free form Pattern A, 10.0 mg of the free form Pattern B, 10.8 mg of the HCl salt Pattern A, 12.2 mg of the phosphate salt Pattern A, or 10.5 mg of the sodium salt Pattern A was weighed into a 20 mL glass vial, respectively. 5 mL of solubility medium was added. The salt amount used was equivalent to 10 mg anhydrous free form. Obtained suspensions were stirred at 37° C. at 400 rpm and sampled at 2 hours and at 24 hours. The samples were centrifuged at 37° C. at 14,000 rpm for 5 min. Supernatants were analyzed by HPLC and PH meter for solubility and pH value, respectively. Residual solids (wet cakes) from the 24 hours samples were also characterized by XRPD to determine physical form.

[3] = Bulk stability (solid state, 1 week; HPLC, XRPD, IC, color); details: 25° C./92.5% RH open, 40° C./75% RH open, 60° C. tight container
Protocol: Bulk stability of free form Pattern B was evaluated at 25° C./92.5% RH in an open container, at 40° C./75% RH in an open container and at 60° C. in a tight container over 1 week.

[4] = Exposure of Pattern C in ambient condition (variable temperature XRPD); details: 23° C., 27% RH
Protocol: Pattern C is an anhydrate. It was obtained in variable temperature XRPD experiment by heating Pattern A to 100° C. under the nitrogen atmosphere. Pattern C is of high crystallinity. According to the DSC thermogram of Pattern A, Pattern C has a melting peak at Tonset of 134.2° C. Pattern C is a metastable form.

SMILES | Hygroscopicity [1] | XRPD after DVS test [1] | Water absorbed at 80% RH ([1]; 80% RH) | XRPD of residual solid ([2]; FaSSGF, pH 1.6, 37° C.) | Form after the solubility test (XRPD) ([2]; most of media) | XRPD of residual solid ([2]; pH 1.2 HCl buffer, 37° C.) | solubility ([2]; other media (pH 4.5 acetate, pH 6.8 phosphate, water, FaSSIF-v1, HPMC/Pluronic), 37° C., 2 h and 24 h) [µg/mL] | solubility ([2]; pH 1.2 HCl buffer, pH 1.6 FaSSGF and pH 5.0 FeSSIF-v1, 37° C.) [µg/mL] | Bulk stability, chemical and physical [3] | Degradation by HPLC [3] | Form change by XRPD [3] | Form conversion after exposure in ambient condition [4]
CCOc1cc(C(=O)N(C)Cc2cnc(CO)c3cn[nH]c23)ccc1-c1cc(F)cc(F)c1 [Free form Pattern B, 2-ethoxy-3′,5′-difluoro-N-((4-(hydroxymethyl)-1H-pyrazolo[4,3-c]pyridin-7-yl)methyl)-N-methyl-[1,1′-biphenyl]-4-carboxamide] | slightly hygroscopic | still Pattern B | about 0.8% | hemi-HCl salt Pattern A | no form change or partially converted to free form Pattern A | Mono-HCl salt Pattern A | 2 to 80 (≈ 4.42 to 177 µM) | 100 to 600 (≈ 221 to 1330 µM) | physically and chemically stable | no obvious degradation | no form change | –
CCOc1cc(C(=O)N(C)Cc2cnc(CO)c3cn[nH]c23)ccc1-c1cc(F)cc(F)c1 [Pattern C, 2-ethoxy-3′,5′-difluoro-N-((4-(hydroxymethyl)-1H-pyrazolo[4,3-c]pyridin-7-yl)methyl)-N-methyl-[1,1′-biphenyl]-4-carboxamide] | – | – | – | – | – | – | – | – | – | – | – | converted to Pattern A
